Experiments:
Format in all cases: cell-based
Yersinia pestis = conditions: expected efficacy; Gram: neg
Proteus mirabilis = test: Expected efficacy of antibiotic agents; conditions: Gram: neg
Citrobacter freundii = test: Expected efficacy of antibiotic agents; conditions: Gram: neg
Rickettsiae = conditions: expected efficacy; Gram: neg
Campylobacter jejuni = test: Expected efficacy of antibiotic agents; conditions: Gram: neg
Enterococcus faecium = test: Expected efficacy of antibiotic agents; conditions: Gram: pos
Shigella dysenteriae = test: Expected efficacy of antibiotic agents; conditions: Gram: neg
Francisella tularensis = conditions: expected efficacy; Gram: neg
Bartonella bacilliformis = test: Expected efficacy of antibiotic agents; conditions: Gram: neg
Klebsiella pneumoniae = test: Expected efficacy of antibiotic agents; conditions: Gram: neg
Moraxella catarrhalis = test: Expected efficacy of antibiotic agents; conditions: Gram: neg
Klebsiella oxytoca = test: Expected efficacy of antibiotic agents; conditions: Gram: neg
Proteus vulgaris = test: Expected efficacy of antibiotic agents; conditions: Gram: neg
Shigella boydii = test: Expected efficacy of antibiotic agents; conditions: Gram: neg
Morganella morganii = test: Expected efficacy of antibiotic agents; conditions: Gram: neg
Escherichia coli = test: Expected efficacy of antibiotic agents; conditions: Gram: neg
Corynebacterium jeikeium = test: Expected efficacy of antibiotic agents; conditions: Gram: pos
Providencia rettgeri = test: Expected efficacy of antibiotic agents; conditions: Gram: neg
Haemophilus influenzae = test: Expected efficacy of antibiotic agents; conditions: Gram: neg
Shigella flexneri = test: Expected efficacy of antibiotic agents; conditions: Gram: neg
Enterobacter aerogenes = test: Expected efficacy of antibiotic agents; conditions: Gram: neg
[1] = system: Staphylococcus epidermidis; test: Expected efficacy of antibiotic agents; conditions: Gram: pos
Legionella pneumophila = conditions: expected efficacy; Gram: neg
Pseudomonas fluorescens = test: Expected efficacy of antibiotic agents; conditions: Gram: neg
Neisseria gonorrhoeae = test: Expected efficacy of antibiotic agents; conditions: Gram: neg
Neisseria meningitidis = test: Expected efficacy of antibiotic agents; conditions: Gram: neg
[2] = system: Methicillin resistant staph aureus (MRSA); test: Expected efficacy of antibiotic agents; conditions: Gram: pos
Pseudomonas aeruginosa = test: Expected efficacy of antibiotic agents; conditions: Gram: neg
Chlamydia pneumoniae = test: Expected efficacy of antibiotic agents; conditions: Gram: n/a
Citrobacter diversus = test: Expected efficacy of antibiotic agents; conditions: Gram: neg
Vibrio cholerae = test: Expected efficacy of antibiotic agents; conditions: Gram: neg
[3] = system: Haemophilus parainfluenzae; test: Expected efficacy of antibiotic agents; conditions: Gram: neg
Providencia stuartii = test: Expected efficacy of antibiotic agents; conditions: Gram: neg
Salmonella typhi = test: Expected efficacy of antibiotic agents; conditions: Gram: neg
Bacteroides fragilis = test: Expected efficacy of antibiotic agents; conditions: Gram: anaer
Shigella sonnei = test: Expected efficacy of antibiotic agents; conditions: Gram: neg
Serratia marcescens = test: Expected efficacy of antibiotic agents; conditions: Gram: neg
Bordetella pertussis = test: Expected efficacy of antibiotic agents; conditions: Gram: neg
Enterobacter sakazakii = test: Expected efficacy of antibiotic agents; conditions: Gram: neg
[4] = system: Staphylococcus aureus (MSSA); test: Expected efficacy of antibiotic agents; conditions: Gram: pos
[5] = system: Acinetobacter calcoaceticus; test: Expected efficacy of antibiotic agents; conditions: Gram: neg
Peptostreptococcus = test: Expected efficacy of antibiotic agents; conditions: Gram: pos
[6] = system: Viridans group streptococci; test: Expected efficacy of antibiotic agents; conditions: Gram: pos
[7] = system: Klebsiella (Calymmatobacterium) granulomatis; test: Expected efficacy of antibiotic agents; conditions: Gram: neg
Diphtheroids = test: Expected efficacy of antibiotic agents; conditions: Gram: pos
Mycoplasma pneumoniae = test: Expected efficacy of antibiotic agents; conditions: Gram: n/a
Enterococcus faecalis = test: Expected efficacy of antibiotic agents; conditions: Gram: pos
[8] = system: Corynebacterium urealyticum; test: Expected efficacy of antibiotic agents; conditions: Gram: pos
Acinetobacter baumannii = test: Expected efficacy of antibiotic agents; conditions: Gram: neg
Acinetobacter lwoffii = test: Expected efficacy of antibiotic agents; conditions: Gram: neg
Enterobacter cloacae = test: Expected efficacy of antibiotic agents; conditions: Gram: neg
Clostridium perfringens = conditions: expected efficacy; Gram: anaer
Clostridium difficile = test: Expected efficacy of antibiotic agents; conditions: Gram: anaer
Haemophilus ducreyi = test: Expected efficacy of antibiotic agents; conditions: Gram: neg
Streptococcus pyogenes = test: Expected efficacy of antibiotic agents; conditions: Gram: pos
Chlamydia trachomatis = test: Expected efficacy of antibiotic agents; conditions: Gram: n/a
Chlamydia psittaci = conditions: expected efficacy; Gram: n/a
Streptococcus pneumoniae = test: Expected efficacy of antibiotic agents; conditions: Gram: pos
Streptococcus agalactiae = test: Expected efficacy of antibiotic agents; conditions: Gram: pos

## O=C(O)c1cn(C2CC2)c2cc(N3CCNCC3)c(F)cc2c1=O [Ciprofloxacin]
Yersinia pestis
  efficacy against Yersinia pestis: yes
Proteus mirabilis
  efficacy against Proteus mirabilis: yes
Citrobacter freundii
  efficacy against Citrobacter freundii: yes
Rickettsiae
  efficacy against Rickettsiae: yes
Campylobacter jejuni
  efficacy against Campylobacter jejuni: yes
Enterococcus faecium
  efficacy against Enterococcus faecium: no
Shigella dysenteriae
  efficacy against Shigella dysenteriae: yes
Francisella tularensis
  efficacy against Francisella tularensis: yes
Bartonella bacilliformis
  efficacy against Bartonella bacilliformis: yes
Klebsiella pneumoniae
  efficacy against Klebsiella pneumoniae: yes
Moraxella catarrhalis
  efficacy against Moraxella catarrhalis: yes
Klebsiella oxytoca
  efficacy against Klebsiella oxytoca: yes
Proteus vulgaris
  efficacy against Proteus vulgaris: yes
Shigella boydii
  efficacy against Shigella boydii: yes
Morganella morganii
  efficacy against Morganella morganii: yes
Escherichia coli
  efficacy against Escherichia coli: yes
Corynebacterium jeikeium
  efficacy against Corynebacterium jeikeium: no
Providencia rettgeri
  efficacy against Providencia rettgeri: yes
Haemophilus influenzae
  efficacy against Haemophilus influenzae: yes
Shigella flexneri
  efficacy against Shigella flexneri: yes
Enterobacter aerogenes
  efficacy against Enterobacter aerogenes: yes
[1]
  efficacy against Staphylococcus epidermidis: yes
Legionella pneumophila
  efficacy against Legionella pneumophila: yes
Pseudomonas fluorescens
  efficacy against Pseudomonas fluorescens: yes
Neisseria gonorrhoeae
  efficacy against Neisseria gonorrhoeae: yes
Neisseria meningitidis
  efficacy against Neisseria meningitidis: yes
[2]
  efficacy against Methicillin resistant staph aureus (MRSA): no
Pseudomonas aeruginosa
  efficacy against Pseudomonas aeruginosa: yes
Chlamydia pneumoniae
  efficacy against Chlamydia pneumoniae: yes
Citrobacter diversus
  efficacy against Citrobacter diversus: yes
Vibrio cholerae
  efficacy against Vibrio cholerae: yes
[3]
  efficacy against Haemophilus parainfluenzae: yes
Providencia stuartii
  efficacy against Providencia stuartii: yes
Salmonella typhi
  efficacy against Salmonella typhi: yes
Bacteroides fragilis
  efficacy against Bacteroides fragilis: no
Shigella sonnei
  efficacy against Shigella sonnei: yes
Serratia marcescens
  efficacy against Serratia marcescens: yes

## NC[C@H]1O[C@H](O[C@H]2[C@H](O)[C@@H](O[C@H]3O[C@H](CO)[C@@H](O)[C@H](N)[C@H]3O)[C@H](N)C[C@@H]2N)[C@H](N)C[C@@H]1O [Tobramycin]
Bordetella pertussis
  efficacy against Bordetella pertussis: no
Yersinia pestis
  efficacy against Yersinia pestis: yes
Enterobacter sakazakii
  efficacy against Enterobacter sakazakii: yes
Proteus mirabilis
  efficacy against Proteus mirabilis: yes
[4]
  efficacy against Staphylococcus aureus (MSSA): no
[5]
  efficacy against Acinetobacter calcoaceticus: no
Citrobacter freundii
  efficacy against Citrobacter freundii: yes
Campylobacter jejuni
  efficacy against Campylobacter jejuni: yes
Peptostreptococcus
  efficacy against Peptostreptococcus: no
Enterococcus faecium
  efficacy against Enterococcus faecium: no
[6]
  efficacy against Viridans group streptococci: no
Shigella dysenteriae
  efficacy against Shigella dysenteriae: yes
[7]
  efficacy against Klebsiella (Calymmatobacterium) granulomatis: yes
Klebsiella pneumoniae
  efficacy against Klebsiella pneumoniae: yes
Moraxella catarrhalis
  efficacy against Moraxella catarrhalis: yes
Klebsiella oxytoca
  efficacy against Klebsiella oxytoca: yes
Diphtheroids
  efficacy against Diphtheroids: no
Proteus vulgaris
  efficacy against Proteus vulgaris: yes
Shigella boydii
  efficacy against Shigella boydii: yes
Mycoplasma pneumoniae
  efficacy against Mycoplasma pneumoniae: no
Escherichia coli
  efficacy against Escherichia coli: yes
Corynebacterium jeikeium
  efficacy against Corynebacterium jeikeium: no
Enterococcus faecalis
  efficacy against Enterococcus faecalis: no
[8]
  efficacy against Corynebacterium urealyticum: no
Acinetobacter baumannii
  efficacy against Acinetobacter baumannii: no
Haemophilus influenzae
  efficacy against Haemophilus influenzae: yes
Acinetobacter lwoffii
  efficacy against Acinetobacter lwoffii: no
Enterobacter cloacae
  efficacy against Enterobacter cloacae: yes
Shigella flexneri
  efficacy against Shigella flexneri: yes
Enterobacter aerogenes
  efficacy against Enterobacter aerogenes: yes
Clostridium perfringens
  efficacy against Clostridium perfringens: no
Clostridium difficile
  efficacy against Clostridium difficile: no
[1]
  efficacy against Staphylococcus epidermidis: no
Legionella pneumophila
  efficacy against Legionella pneumophila: no
Haemophilus ducreyi
  efficacy against Haemophilus ducreyi: yes
Pseudomonas fluorescens
  efficacy against Pseudomonas fluorescens: yes
Neisseria gonorrhoeae
  efficacy against Neisseria gonorrhoeae: no
Neisseria meningitidis
  efficacy against Neisseria meningitidis: no
[2]
  efficacy against Methicillin resistant staph aureus (MRSA): no
Streptococcus pyogenes
  efficacy against Streptococcus pyogenes: no
Pseudomonas aeruginosa
  efficacy against Pseudomonas aeruginosa: yes
Chlamydia pneumoniae
  efficacy against Chlamydia pneumoniae: no
Citrobacter diversus
  efficacy against Citrobacter diversus: yes
Vibrio cholerae
  efficacy against Vibrio cholerae: no
Chlamydia trachomatis
  efficacy against Chlamydia trachomatis: no
Chlamydia psittaci
  efficacy against Chlamydia psittaci: no
Streptococcus pneumoniae
  efficacy against Streptococcus pneumoniae: no
Streptococcus agalactiae
  efficacy against Streptococcus agalactiae: no
Bacteroides fragilis
  efficacy against Bacteroides fragilis: no
Shigella sonnei
  efficacy against Shigella sonnei: yes
Serratia marcescens
  efficacy against Serratia marcescens: yes

From patent publication US9707229B2, “Compositions and methods for treating an infection” (CMPD LICENSING, LLC, priority 2015, dated 2017)
